Data published in publication PMC4458427 (Journal of controlled release : official journal of the …, 2015).
Where two headings read alike, the source gives them in different places. Where a SMILES comes first, the peptide text is derived from it.

Experiments:
[1] = tested on: NCI/ADR-RES (multi-drug resistant ovarian adenocarcinoma) cells; assay: cells; assay type: cell-based; settings: 72 h
[2] = tested on: A549 (lung carcinoma) cells; assay: MTT cytotoxicity, A549; assay type: cell-based; settings: Homo sapiens, A549, 72 h
[3] = mouse, in vivo, 1 mg/kg
[4] = mouse; cited from earlier work
[5] = human; cited from earlier work

CC(=O)O[C@H]1C(=O)[C@@]2(C)[C@H]([C@H](OC(=O)c3ccccc3)[C@]3(O)C[C@H](OC(=O)[C@H](O)[C@@H](NC(=O)c4ccccc4)c4ccccc4)C(C)=C1C3(C)C)[C@]1(OC(C)=O)CO[C@@H]1C[C@@H]2O [PTX, Paclitaxel]
IC50 ([1]; Homo sapiens, NCI/ADR-RES): 9.7 µM | decrease in activity compared to the peptide conjugate ([1]; NCI/ADR-RES, MTT): ~2 fold | IC50 [2]: 0.0036 µM | tolerability at maximum soluble concentration [3]: well tolerated

CC(C)[C@H](NC(=O)[C@H](CCCCN)NC(=O)[C@@H](NC(=O)[C@H](CCCCN)NC(=O)[C@@H](NC(=O)[C@H](CCCCN)NC(=O)[C@@H](NC(=O)[C@@H]1CCCN1C(=O)[C@H]1CCCN1C(=O)[C@@H](NC(=O)[C@H](CCCCN)NC(=O)[C@@H](NC(=O)[C@H](CCCCN)NC(=O)[C@@H](NC(=O)[C@H](CCCCN)NC(=O)[C@@H](NC(=O)[C@@H](N)CCCCN)C(C)C)C(C)C)C(C)C)C(C)C)[C@@H](C)O)C(C)C)C(C)C)C(=O)N[C@@H](CCCCN)C(N)=O [SVS-1] (HELM PEPTIDE1{K.V.K.V.K.V.K.V.[dP].P.T.K.V.K.V.K.V.K.[am]}$$$$V2.0)
IC50 [1]: 3.21 µM

KKVVFKVKFKK-NH2 [KSLK]
reported half-life [4]: 6 min

YGRKKRRQRRR-NH2 [TAT]
reported half-life [5]: 3.5 min
